According to patent publication US7838548B2, “Compounds and methods for treating toll-like receptor 2-related diseases and conditions” (Eisai R&D Management Co., Ltd., priority 2003, dated 2010):

Columns and labels:
Type in all cases: cell-based
human TLR2 [1] = target: T1, human TLR2 (Homo sapiens, UniProt O60603); assay: TLR2 antagonism assay, HEK-TLR2-ELAM luciferase reporter cells stimulated with Pam3CSK4
T1 construct: expressed in transfected cells
Protocol: (§1) Either Pam3CSK4 and R-MALP-2 lipopeptides (EMC-Microcollections), or lipopolysaccharide (LPS, List Biologicals) are dissolved in water to a concentration of 1 mg/mL, sonicated 5 times for 30 seconds, and stored in aliquots at −20° C. Prior to addition to cells, an aliquot of the dissolved ligand is sonicated for 1 minute and then is diluted in medium to 2 ng/mL Pam3CSK4, 16 ng/mL R-MALP-2, or 100 ng/mL LPS. The final concentration in the assay is 0.2 ng/mL Pam3CSK4, 1.6 ng/mL R-MALP-2, or 10 ng/mL LPS.
(§2) The test compounds are stored as 30 mM stocks in […]. The final concentrations of the test compounds in the assay are 0.1, 0.3, 1, 3, 10, and 30 μM in 0.2% DMSO. 0.2% DMSO is used in the assay as a control.
(§3) HEK-TLR2-ELAM cells were generated by a two-step method. In step 1, Hek293 cells were transfected with pcDNA3.0 encoding human TLR2 followed by antibiotic selection with G418 in D-MEM supplemented with 10% fetal bovine serum (Gibco BRL) to generate Hek-TLR2 cells. In step 2, Hek-TLR2 cells were transfected with pELAM-luc/Zeo followed by antibiotic selection with Zeocin in D-MEM supplemented with 10% fetal bovine serum. Transfectants were screened for TLR2 responsiveness by measuring ligand-induced pELAM-luciferase reporter activity, and analyzed for TLR2 mRNA expression by RT-PCR.
Step 1. On day 1, HEK-TLR2-ELAM cells are plated at 2×10^5 cells/mL, 80 μL/well, in 96-well black plates. The cells are incubated at 37° C., 5% CO2, for 24 hours. The growth medium used is D-MEM, 10% fetal bovine serum, 2 mM L-glutamine, 10 μg/mL Ciprofloxacin, 300 μg/mL Geneticin (G418), and 150 μg/mL Zeocin.
Step 2. On day 2, 10 μL of each test compound is added to the wells, and 10 μL lipopeptide is added to all of the wells. The plates are then incubated at 37° C., 5% CO2, for 18 hours.
(§4) Step 3. On day 3, 25 μL of Steady-Glo reagent (Promega, Inc.) is added to each well. The plates are then shaken for 5 minutes, and the chemiluminescence of each well is read in a Wallac1450 MicroBetaTriLux counter. Dose-response curves were plotted in KaleidaGraph, version 3.5 Synergy Software, and IC50 values were calculated.

TLR4 = target: T2, TLR4 (Homo sapiens, UniProt O00206); assay: TLR4 antagonism assay, HEK-TLR4-MD2-ELAM luciferase reporter cells stimulated with LPS plus soluble CD14; conditions: Table 6, 10 ng/mL LPS plus 10 nM soluble CD14, 18 hours
T2 construct: expressed in transfected cells
T2 sequence (O00206 24-839): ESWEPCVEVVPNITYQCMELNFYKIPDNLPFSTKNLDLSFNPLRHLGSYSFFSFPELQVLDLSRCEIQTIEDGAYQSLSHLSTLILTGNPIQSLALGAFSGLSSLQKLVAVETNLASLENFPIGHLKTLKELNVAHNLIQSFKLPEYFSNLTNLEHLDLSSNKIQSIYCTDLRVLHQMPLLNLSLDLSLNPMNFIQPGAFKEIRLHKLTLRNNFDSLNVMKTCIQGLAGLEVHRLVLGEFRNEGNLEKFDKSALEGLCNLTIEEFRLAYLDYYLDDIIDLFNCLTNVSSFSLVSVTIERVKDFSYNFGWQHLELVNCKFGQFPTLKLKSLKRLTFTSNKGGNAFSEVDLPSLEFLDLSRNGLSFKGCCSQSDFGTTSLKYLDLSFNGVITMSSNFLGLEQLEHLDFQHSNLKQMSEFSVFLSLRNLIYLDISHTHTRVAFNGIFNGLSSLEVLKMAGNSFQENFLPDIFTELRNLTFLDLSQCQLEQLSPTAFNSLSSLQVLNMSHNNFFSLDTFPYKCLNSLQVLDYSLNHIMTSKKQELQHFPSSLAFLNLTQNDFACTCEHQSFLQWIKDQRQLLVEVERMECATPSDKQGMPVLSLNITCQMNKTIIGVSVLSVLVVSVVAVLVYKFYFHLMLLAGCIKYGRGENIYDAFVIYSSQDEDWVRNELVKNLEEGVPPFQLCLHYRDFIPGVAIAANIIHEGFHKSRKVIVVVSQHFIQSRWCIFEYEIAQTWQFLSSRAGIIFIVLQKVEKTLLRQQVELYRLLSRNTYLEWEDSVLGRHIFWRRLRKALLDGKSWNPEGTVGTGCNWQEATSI
T2 sequence (Q9Y6Y9 17-160 partner limits assumed): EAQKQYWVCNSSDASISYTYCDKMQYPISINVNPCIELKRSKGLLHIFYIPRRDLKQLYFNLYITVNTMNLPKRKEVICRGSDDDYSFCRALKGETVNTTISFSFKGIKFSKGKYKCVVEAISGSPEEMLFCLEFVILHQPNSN
Protocol: as §1, §2
HEK293 cells stably carrying plasmids for TLR4, MD2, and the NF-κB reporter gene ELAM-1-luciferase (HEK-TLR4-MD2-ELAM) were generated as described by Yang et al., J. Biol. Chem. 275:20861-20866, 2000.
Step 1. On day 1, HEK-TLR4-MD2-ELAM cells were plated at 4×10^5 cells/mL, 80 μL/well, in 96-well black plates. The growth medium used is D-MEM, 10% fetal bovine serum, 2 mM L-glutamine, 10 μg/mL Ciprofloxacin, 300 μg/mL Geneticin (G418), 150 μg/mL Zeocin, and 50 μg/mL Hygromycin.
Step 2. On day 2, 10 μL of each test compound is added to the wells, and 10 μL of LPS plus 10 nM soluble CD14 (Biometec) is added to all of the wells. The plates are then incubated at 37° C., 5% CO2, for 18 hours.
as §4

human TLR2 [2] = target: T1, human TLR2; assay: TLR2 antagonism assay, HEK-TLR2-ELAM luciferase reporter cells stimulated with R-MALP-2; conditions: Table 7, diacylated lipopeptide R-MALP-2 (TLR2 interacts with TLR6), 1.6 ng/mL
Protocol: as §1, §2
as §3, with “In step 2, Hek-TLR2 cells were transfected with pELAM-luc/Zeo followed by antibiotic selection with Zeocin in D-MEM supplemented with 10% fetal bovine serum.” left out, “RT-PCR. […]” for “RT-PCR.”
Step 3. […] The plates are then shaken for 5 minutes, and the chemiluminescence of each well is read in a Wallac1450 MicroBetaTriLux counter. Dose-response curves were plotted in KaleidaGraph, version 3.5 Synergy Software, and IC50 values were calculated. […]

[3] = Table 6, 0.2 ng/mL Pam3CSK4, 18 hours, ELAM-luciferase reporter
[4] = Table 7, triacylated lipopeptide Pam3CSK4 (TLR2 associates with TLR1), 0.2 ng/mL

T1 sequence (O60603 21-784): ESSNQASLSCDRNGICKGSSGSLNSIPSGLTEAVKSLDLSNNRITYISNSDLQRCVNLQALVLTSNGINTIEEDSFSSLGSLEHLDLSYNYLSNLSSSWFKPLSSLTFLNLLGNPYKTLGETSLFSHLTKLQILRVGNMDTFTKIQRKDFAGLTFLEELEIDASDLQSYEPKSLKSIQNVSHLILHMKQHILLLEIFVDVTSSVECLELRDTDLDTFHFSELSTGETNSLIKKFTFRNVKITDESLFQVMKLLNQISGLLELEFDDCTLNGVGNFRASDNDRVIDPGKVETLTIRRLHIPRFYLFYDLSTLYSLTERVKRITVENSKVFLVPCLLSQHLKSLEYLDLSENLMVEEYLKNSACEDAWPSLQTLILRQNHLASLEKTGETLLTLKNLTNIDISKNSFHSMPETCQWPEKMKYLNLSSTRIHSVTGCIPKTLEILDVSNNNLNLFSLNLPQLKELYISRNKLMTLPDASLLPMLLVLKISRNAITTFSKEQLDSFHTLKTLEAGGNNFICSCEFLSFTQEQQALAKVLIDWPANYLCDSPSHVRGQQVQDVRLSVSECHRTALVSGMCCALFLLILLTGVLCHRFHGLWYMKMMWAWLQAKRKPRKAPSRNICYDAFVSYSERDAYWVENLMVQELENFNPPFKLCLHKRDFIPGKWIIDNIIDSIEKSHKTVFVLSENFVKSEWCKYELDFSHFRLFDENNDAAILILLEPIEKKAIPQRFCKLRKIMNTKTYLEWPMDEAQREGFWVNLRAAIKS

Row | SMILES | IC50 (human TLR2 [1]; [3]) | IC50 (TLR4) | IC50 (human TLR2 [1]; [4]) | IC50 (human TLR2 [2])
1 | CCCCCCCCCCCCCCCC(=O)OC[C@H](CNC(=O)[C@@H](COP(=O)(O)OCCNC(=O)[C@@H](NC(=O)Cc1c[nH]c2ccc(OCc3ccccc3)cc12)[C@@H](C)CC)NC(C)=O)OC(=O)CCCCCCCCCCCCCCC [ER811261] | 500 nM | 1800 nM | – | –
2 | CCCCCCCCCCCCCCCC(=O)N[C@@H](COP(=O)(O)OCCNC(=O)[C@@H](NC(=O)Cc1c[nH]c2ccc(Br)cc12)[C@@H](C)CC)C(=O)NCCCOC(=O)CCCCCCCCCCC [ER811232] | 750 nM | 400 nM | – | –
3 | CCCCCCCCCCCCCCCCCCCC(=O)N[C@@H](COP(=O)(O)OCCNC(=O)[C@@H](NC(=O)Cc1c[nH]c2ccccc12)[C@@H](C)CC)C(=O)NCCC(O)CCCCCCCCCC (mixture of isomers) [ER811395] | 650 nM | 1800 nM | – | –
4 | CCCCCCCCCCCCCC(=O)N[C@H](COCC[C@@H](CCCCCCC)OC(=O)CCCCCCCCCCC)COP(=O)(O)OCCNC(=O)[C@@H](NC(=O)Cc1c[nH]c2ccccc12)[C@@H](C)CC [ER808977] | – | – | 240 nM | 20000 nM
5 | CCCCCCCCCCCCCCCC(=O)N[C@@H](COP(=O)(O)OCCNC(=O)[C@@H](NC(=O)Cc1c[nH]c2ccc(-c3ccccc3)cc12)[C@@H](C)CC)C(=O)NCCCOC(=O)CCCCCCCCCCC [ER811243] | – | 200 nM | – | –
6 | CCCCCCCCCCCCCCCC(=O)OC[C@H](CNC(=O)[C@H](COP(=O)(O)OCCNC(=O)[C@@H](NC(=O)Cc1c[nH]c2ccc(OCc3ccccc3)cc12)[C@@H](C)CC)NC(C)=O)OC(=O)CCCCCCCCCCCCCCC [ER811245] | 430 nM | 3400 nM | 440 nM | 30000 nM
7 | CCCCCCCCCCCCCCCCCCCC(=O)N[C@@H](COP(=O)(O)OCCNC(=O)[C@@H](NC(=O)Cc1c[nH]c2ccc(OCc3ccccc3)cc12)[C@@H](C)CC)C(=O)NCCC(O)CCCCCCCCCCCCC (mixture of isomers) [ER812011] | – | 6600 nM | – | –
8 | CCCCCCCCCCCCCCCCCCCC(=O)N[C@@H](COP(=O)(O)OCCNC(=O)[C@@H](NC(=O)Cc1c[nH]c2ccc(OCc3ccccc3)cc12)C(C)C)C(=O)NCCC(O)CCCCCCCCCCCCC (mixture of isomers) [ER811254] | 770 nM | 3600 nM | – | –
9 | CCCCCCCCCCCCCCCCCCCC(=O)N[C@@H](COP(=O)(O)OCCNC(=O)[C@@H](NC(=O)Cc1c[nH]c2ccccc12)[C@@H](C)CC)C(=O)NCCC(O)CCCCCCCCCCCCC (mixture of isomers) [ER811393] | – | 12300 nM | – | –
10 | CCCCCCCCCCCCCCCC(=O)N[C@@H](COP(=O)(O)OCCNC(=O)[C@@H](NC(=O)Cc1c[nH]c2ccccc12)[C@@H](C)CC)C(=O)NCCCOC(=O)CCCCCCCCCCC [ER811211] | 440 nM | 700 nM | – | –
11 | CCCCCCCCCCCCCCCC(=O)OCCCNC(=O)C(COP(=O)(O)OCCNC(=O)[C@@H](NC(=O)Cc1c[nH]c2ccccc12)[C@@H](C)CC)NC(=O)CCCCCCCCCCC (stereo partly drawn) [ER811212] | 390 nM | 1000 nM | – | –
